The text below walks through data of patent publication US7026475B2, “Positive allosteric AMPA receptor modulators (PAARM), processes for preparing them, and their use as pharmaceutical compositions” (Boehringer Ingelheim Pharma GmbH & Co. KG, priority 2001, dated 2006).

The test deals with AMPA receptors. The experiment in a line: Electrophysiological measurement of intensification of the agonist-induced current on cells expressing functional AMPA receptors. It counts as cell-based. The arrangement: key: + good; + + very good. The following applies: positive allosteric influence on agonist-induced current; tested at concentrations between 0.3 μmol and 300 μmol. The method, then:
The effect of the compounds according to the invention as AMPA receptor modulators was measured electrophysiologically on cells which express functional AMPA receptors. Investigations were carried out to see whether the test substances have a positive allosteric influence on the agonist-induced current.
The test was carried out at concentrations of between 0.3 μmol and 300 μmol.

For `CC1Nc2cccc3cccc(c23)S1(=O)=O` (centres unmarked) [Example 1, 2-methyl-2,3-dihydronaphtho[1,8-de][1,3]thiazine-1,1-dioxide], the “Intensification of the Agonist-Induced Current, Activity” value is “+”. For `CC1Nc2ccc(Cl)c3cccc(c23)S1(=O)=O` (centres unmarked) [Example 2, 6-chloro-2-methyl-2,3-dihydronaphtho[1,8-de][1,3]thiazine-1,1-dioxide], the “Intensification of the Agonist-Induced Current, Activity” value is given as “+ +”.
